Molecules are shown by their SMILES.

In the case of `CS(=O)(=O)Nc1cc(OC[C@@H](O)CN[C@H]2CC[C@H](c3ccc(O)cc3)CC2)ccc1O` [Compound 1, trans-N-{2-Hydroxy-5-[((2S)-2-hydroxy-3-{[4-(4-hydroxyphenyl)cyclohexyl]amino}propyl)oxy]phenyl}methanesulfonamide], the melting point is 85 to 90 °C.
In the case of `CCOC(=O)COc1ccc([C@H]2CC[C@H](NC[C@H](O)COc3ccc(O)c(NS(C)(=O)=O)c3)CC2)cc1` [Compound 2, Ethyl trans-(4-{4-[((2S)-2-hydroxy-3-{4-hydroxy-3-[(methylsulfonyl)amino]phenoxy}propyl)amino]cyclohexyl}phenoxy)acetate], the melting point fell in the range of 60 to 70 °C.

The term melting point denotes the temperature of the solid-liquid transition.

Values taken from patent publication US7453010B2, “Phenylcyclohexylpropanolamine derivatives, preparation and therapeutic application thereof” (Sanofi Aventis, priority 2002, dated 2008).
